Measured values: patent publication US20190313638A1, “ACTIVE COMPOUND COMBINATIONS” (priority 2016, published 2019)

Experiment: Log P by HPLC on reversed phase columns (EEC directive 79/831 Annex V.A8)
Type: physicochemical
Method: Measurement of Log P values was performed according to EEC directive 79/831 Annex V.A8 by HPLC (High Performance Liquid Chromatography) on reversed phase columns with the following methods:
Calibration was done with straight-chain alkan2-ones (with 3 to 16 carbon atoms) with known Log P values (measurement of Log P values using retention times with linear interpolation between successive alkanones). Lambda-max-values were determined using UV-spectra from 200 nm to 400 nm and the peak values of the chromatographic signals.

Compound `CCN(C)/C=N/c1cc(C)c(Oc2ccccc2)cc1Br` [Compound (I-4), N′-(2-bromo-5-methyl-4-phenoxyphenyl)-N-ethyl-N-methylimidoformamide] has a chromatographic logP ([a] LC-UV, acidic range, 0.1% formic acid in water and acetonitrile as eluent) of 4.38 and a chromatographic logP ([b] LC-UV, neutral range, 0.001 molar ammonium acetate solution in water and acetonitrile as eluent) of 4.33.
